According to US20240262793A1, “QUINAZOLINE COMPOUND, AND PREPARATION METHOD THEREFOR AND APPLICATION THEREOF” (SHANGHAI PHARMACEUTICALS HOLDING CO., LTD., priority 2021, published 2024):

Assays:
Type in all cases: cell-based
Conditions in all cases: Homo sapiens, LPS 100 ng/mL
[1] = system: TNF-α; experiment: Inhibition of TNF-α in PMA-differentiated, LPS-stimulated THP-1 cells (ELISA of cell supernatant)
Method: (§1) (1) Cell culture and inoculation: A stock solution of PMA at 1 mg/mL was diluted with serum-free RP1640 medium to prepare a 100 ng/mL PMA solution. Normal cultured THP-1 cells were centrifuged, resuspended in a complete medium (RP1640 medium containing 10% FBS), and counted. The cell density was adjusted to 2×10^6 cells/mL. An equal volume of 100 ng/mL PMA solution was then added, resulting in a cell density of 1×10^6 cells/mL and a final PMA concentration of 50 ng/mL. 100 μL of the cell suspension was seeded into each well of a 96-well cell culture plate with 1×10^5 cells per well. The 96-well cell culture plate was then incubated at 37° C. in a 5% CO2 atmosphere for 24 hours.
(§2) (2) Drug treatment of cells: On the second day, LPS was added to the complete medium to adjust the final concentration to 100 ng/mL, and the compound was prepared using this LPS-containing medium. The compound was added to the appropriate cell wells according to the prepared concentration gradient. The positive control group (LPS+) was a culture medium solution containing a final concentration of 100 ng/mL LPS and 0.1% DMSO without drugs, while the negative control group (LPS-) was a culture medium solution containing 0.1% DMSO without LPS. The volume in each well was 100 μL.
(§3) (3) Test sample collection: The mixture was centrifuged at 1000 rpm for 5 minutes and the cell supernatant and cell precipitate were collected separately. The cell supernatant was used to detect TNF-α and IL-6, and the cell precipitate was collected for IL-1β detection. After collecting the cell supernatant, the remaining liquid in the wells was discarded and 100 μL of cell lysis solution (20 mM Tris 8.0; 2 mM EDTA; 0.5% Triton X-100) was added to each well for complete lysis.
(§4) (4) Sample detection: The enzyme-linked immunosorbent assay (ELISA) was used to detect the content of each cytokine. The specific steps were performed according to the instructions provided in the corresponding kit manuals. The catalog numbers of kits are as follows: • Human TNF-alpha Quantikine ELISA Kit, Catalog # STA00D • Human IL-1 beta/IL-1F2 Quantikine ELISA Kit, Catalog # SLB50 • Human IL-6 Quantikine ELISA Kit, Catalog # S6050.
(§5) (5) Data analysis: The in vitro inhibitory activity of the compounds was calculated using the following formula: […]

[2] = system: IL-6; experiment: Inhibition of IL-6 in PMA-differentiated, LPS-stimulated THP-1 cells (ELISA of cell supernatant)
Method: as §1, §2, §3, §4, §5

[3] = system: IL-1β; experiment: Inhibition of IL-1β in PMA-differentiated, LPS-stimulated THP-1 cells (ELISA of cell lysate)
Method: as §1, §2, §3, §4, §5

Structure (SMILES)	IC50 ([1]; THP-1, Table 8, PMA 50 ng/mL) [µM]	IC50 ([2]; THP-1, Table 8, PMA 50 ng/mL) [µM]	IC50 ([3]; THP-1, Table 8, PMA 50 ng/mL) [µM]	IC50 ([1]; THP-1, Table 7, PMA 50 ng/mL) [µM]	IC50 ([2]; THP-1, Table 7, PMA 50 ng/mL) [µM]	IC50 ([3]; THP-1, Table 7, PMA 50 ng/mL) [µM]
O=C1NC2(CCC2)C(=O)N1CCCCCNc1ncnc2cc(F)ccc12 [Example 51, 7-(5-((7-Fluoroquinazolin-4-yl)amino)pentyl)-5,7-diazaspiro[3.4]octane-6,8-dione]	3.96	0.04	3.52	–	–	–
OCCN(CCCCNc1ncnc2cc(Cl)ccc12)Cc1ncco1 [Example 47, 2-((4-((7-Chloroquinazolin-4-yl)amino)butyl)(oxazol-2-ylmethyl)amino)ethan-1-ol]	–	–	–	58.1	1.94	1
O=C1CNC(=O)N1CCCCNc1ncnc2cc(Cl)ccc12 [Example 63, 3-(4-((7-Chloroquinazolin-4-yl)amino)butyl)imidazoline-2,4-dione]	79.4	14.4	23.1	–	–	–
CC1(C)NC(=O)N(CCCCNc2ncnc3cc(F)ccc23)C1=O [Example 57, 3-(4-((7-Fluoroquinazolin-4-yl)amino)butyl)-5,5-dimethylimidazoline-2,4-dione]	29.4	3.22	53.9	–	–	–
C[C@@H](CCCN1C(=O)NC2(CC2)C1=O)Nc1ncnc2cc(Cl)ccc12 [Example 77, (S)-6-(4-((7-Chloroquinazolin-4-yl)amino)pentyl)-4,6-diazaspiro[2.4]heptane-5,7-dione]	22.7	1.37	26.6	–	–	–
CC(CCCN1CC2(CCOCC2)C1)Nc1ccnc2cc(Cl)ccc12 (stereo not drawn) [Example 7, N-(5-(7-Oxa-2-azaspiro[3.5]nonan-2-yl)pentan-2-yl)-7-chloroquinolin-4-amine]	–	–	–	12.2	2.06	30.1
C[C@@H](CCCN1C(=O)CNC1=O)Nc1ncnc2cc(Cl)ccc12 [Example 75, (S)-3-(4-((7-Chloroquinazolin-4-yl)amino)pentyl)imidazolidine-2,4-dione]	45.6	4.28	53.8	–	–	–
CC(CCCN(CCO)Cc1ccc(C#N)cc1)Nc1ccnc2cc(Cl)ccc12 (stereo not drawn) [Example 23, 4-(((4-((7-Chloroquinolin-4-yl)amino)pentyl)(2-hydroxyethyl)amino)methyl)benzonitrile]	–	–	–	2.79	0.38	1.36
COc1ccc(CN(CCO)CCCC(C)Nc2ncnc3cc(Cl)ccc23)cc1F (stereo not drawn) [Example 37]	–	–	–	4.88	0.18	41.8
CN1CC(=O)N(CCCCCNc2ncnc3cc(F)ccc23)C1=O [Example 54, 3-(5-((7-Fluoroquinazolin-4-yl)amino)pentyl)-1-methylimidazoline-2,4-dione]	114	1.05	154	–	–	–
CC(CCCN(CCO)Cc1ccccc1)Nc1ncnc2cc(F)ccc12 (stereo not drawn) [Example 35, 2-(Benzyl(4-((7-fluoroquinazolin-4-yl)amino)pentyl)amino)ethan-1-ol]	–	–	–	20.1	0.82	5.66
CC(CCCNCC1(C)COC1)Nc1ccnc2cc(Cl)ccc12 (stereo not drawn) [Example 4, N^4-(7-Chloroquinolin-4-yl)-N^1-((3-methyloxetan-3-yl)methyl)pentane-1,4-diamine]	–	–	–	5.54	1.28	14.4
O=C1NC2(CC2)C(=O)N1CCCCCNc1ncnc2cc(F)ccc12 [Example 55, 6-(5-((7-Fluoroquinazolin-4-yl)amino)pentyl)-4,6-diazaspiro[2.4]heptane-5,7-dione]	34.9	0.34	63.8	–	–	–
COc1ccc(CN(CCO)CCCC(C)Nc2ccnc3cc(Cl)ccc23)cc1F (stereo not drawn) [Example 31, 2-((4-((7-Chloroquinolin-4-yl)amino)pentyl)(3-fluoro-4-methoxybenzyl)amino)ethan-1-ol]	–	–	–	7.13	1.31	8.64
O=C1NC2(CCCC2)C(=O)N1CCCCNc1ncnc2cc(Cl)ccc12 [Example 62, 3-(4-((7-Chloroquinazolin-4-yl)amino)butyl)-1,3-diazaspiro[4.4]nonane-2,4-dione]	7.18	0.75	51.6	–	–	–
COC(=O)c1ccc(CN(CCO)CCCCCNc2ncnc3cc(Cl)ccc23)cc1 [Example 44, Methyl 4-(((5-((7-chloroquinazolin-4-yl)amino)pentyl)(2-hydroxyethyl)amino)methyl)benzoate]	–	–	–	19.9	0.77	21.1

Structure (SMILES)	IC50 ([1]; THP-1, Table 8, PMA 50 ng/mL) [µM]	IC50 ([2]; THP-1, Table 8, PMA 50 ng/mL) [µM]	IC50 ([3]; THP-1, Table 8, PMA 50 ng/mL) [µM]	IC50 ([1]; THP-1, Table 7, PMA 50 ng/mL) [µM]	IC50 ([2]; THP-1, Table 7, PMA 50 ng/mL) [µM]	IC50 ([3]; THP-1, Table 7, PMA 50 ng/mL) [µM]
CC(CCCN(CCO)Cc1ccc(F)cc1F)Nc1ncnc2cc(Cl)ccc12 (stereo not drawn) [Example 21, 2-((4-((7-Chloroquinazolin-4-yl)amino)pentyl)(2,4-difluorobenzyl)amino)ethan-1-ol]	–	–	–	1.41	0.19	0.65
O=C1NC2(CCC2)C(=O)N1CCCCNc1ncnc2cc(Cl)ccc12 [Example 64, 7-(4-((7-Chloroquinazolin-4-yl)amino)butyl)-5,7-diazaspiro[3.4]octane-6,8-dione]	34.9	0.34	63.8	–	–	–
CC(CCCN(CCO)Cc1ccccn1)Nc1ccnc2cc(Cl)ccc12 (stereo not drawn) [Example 19, 2-((4-((7-Chloroquinolin-4-yl)amino)pentyl)(pyridin-2-ylmethyl)amino)ethan-1-ol]	–	–	–	14.3	0.81	2.2
O=C1NC2(CCCC2)C(=O)N1CCCCNc1ncnc2cc(F)ccc12 [Example 59, 3-(4-((7-Fluoroquinazolin-4-yl)amino)butyl)-1,3-diazaspiro[4.4]nonane-2,4-dione]	12.1	0.37	80.5	–	–	–
O=C1CNC(=O)N1CCCCCNc1ncnc2cc(Cl)ccc12 [Example 67, 3-(5-((7-Chloroquinazolin-4-yl)amino)pentyl)imidazoline-2,4-dione]	65.2	4.6	105	–	–	–
CS(=O)(=O)c1ccc(CN(CCO)CCCCCNc2ncnc3cc(F)ccc23)cc1 [Example 49]	–	–	–	18.5	1.15	48.2
CC(CCCN(CCO)Cc1ccccc1)Nc1ncnc2cc(Cl)ccc12 (stereo not drawn) [Example 34, 2-(Benzyl(4-((7-chloroquinazolin-4-yl)amino)pentyl)amino)ethan-1-ol]	–	–	–	33.4	3.16	36.6
CC(CCCN(CCO)Cc1ccc(F)cc1F)Nc1ccnc2cc(Cl)ccc12 (stereo not drawn) [Example 18, 2-((4-((7-Chloroquinolin-4-yl)amino)pentyl)(2,4-difluorobenzyl)amino)ethan-1-ol]	–	–	–	3.26	0.226	2.94
O=C1NC2(CCCC2)C(=O)N1CCCCCNc1ncnc2cc(F)ccc12 [Example 52, 3-(5-((7-Fluoroquinazolin-4-yl)amino)pentyl)-1,3-diazaspiro[4.4]nonane-2,4-dione]	28.3	0.28	21	–	–	–
CN1CC(=O)N(CCCCNc2ncnc3cc(F)ccc23)C1=O [Example 58, 3-(4-((7-Fluoroquinazolin-4-yl)amino)butyl)-1-methylimidazoline-2,4-dione]	90.7	2.58	86.5	–	–	–
O=C1NC2(CCCC2)C(=O)N1CCCCCNc1ncnc2cc(Cl)ccc12 [Example 66, 3-(5-((7-Chloroquinazolin-4-yl)amino)pentyl)-1,3-diazaspiro[4.4]nonane-2,4-dione]	3.41	0.3	37.4	–	–	–
CC(CCCN1C(=O)NC2(CCCC2)C1=O)Nc1ncnc2cc(Cl)ccc12 (stereo not drawn) [Example 72, 3-(4-((7-Chloroquinazolin-4-yl)amino)pentyl)-1,3-diazaspiro[4.4]nonane-2,4-dione]	7.5	0.23	12.8	–	–	–
COC(=O)c1ccc(CN(CCO)CCCC(C)Nc2ccnc3cc(F)ccc23)cc1 (stereo not drawn) [Example 42]	–	–	–	6.56	2.84	3.31
C[C@H](CCCN1C(=O)NC2(CC2)C1=O)Nc1ncnc2cc(Cl)ccc12 [Example 76, (R)-6-(4-((7-Chloroquinazolin-4-yl)amino)pentyl)-4,6-diazaspiro[2.4]heptane-5,7-dione]	96.1	19.9	110	–	–	–
CCN(CCO)CCCC(C)Nc1ccnc2cc(Cl)ccc12 (stereo not drawn) [HCQ, Hydroxychloroquine, reference compound]	90.5	123	164	69.3	32	62.2
CC(CCCN1C(=O)CNC1=O)Nc1ncnc2cc(Cl)ccc12 (stereo not drawn) [Example 13, 3-(4-((7-Chloroquinazolin-4-yl)amino)pentyl)imidazolidine-2,4-dione]	–	–	–	7.83	1.8	28.6
